Experimental data as given in ChEMBL document CHEMBL3580534, “Antibacterial Biphenanthrenes from the Fibrous Roots of Bletilla striata” (2015).
Values after ≈ are worked out from the molar mass of the structure shown.

Tests used:
Assay type in all cases: functional
Staphylococcus aureus [1] = experiment: Antimicrobial activity against Staphylococcus aureus ATCC 25923 assessed as complete prevention of visible growth after incubation at 37 degC for 18 to 20 hrs
Staphylococcus aureus [2] = experiment: Antimicrobial activity against ampicillin-resistant Staphylococcus aureus ATCC 29213 assessed as complete prevention of visible growth after incubation at 37 degC for 18 to 20 hrs
Staphylococcus aureus [3] = experiment: Antimicrobial activity against methicillin-resistant Staphylococcus aureus ATCC 43300 assessed as complete prevention of visible growth after incubation at 37 degC for 18 to 20 hrs
[4] = test system: Staphylococcus epidermidis; experiment: Antimicrobial activity against Staphylococcus epidermidis CMCC 26069 assessed as complete prevention of visible growth after incubation at 37 degC for 18 to 20 hrs
Enterococcus faecalis = experiment: Antimicrobial activity against Enterococcus faecalis ATCC 29212 assessed as complete prevention of visible growth after incubation at 37 degC for 18 to 20 hrs
Bacillus subtilis = experiment: Antimicrobial activity against Bacillus subtilis CGMCC 1.1470 assessed as complete prevention of visible growth after incubation at 37 degC for 18 to 20 hrs
Escherichia coli = experiment: Antimicrobial activity against Escherichia coli ATCC 35218 assessed as complete prevention of visible growth after incubation at 37 degC for 18 to 20 hrs
Proteus vulgaris = experiment: Antimicrobial activity against Proteus vulgaris CMCC 49027 assessed as complete prevention of visible growth after incubation at 37 degC for 18 to 20 hrs

Structure (SMILES)	MIC (Staphylococcus aureus [1])	MIC (Staphylococcus aureus [2])	MIC (Staphylococcus aureus [3])	MIC [4]	MIC (Enterococcus faecalis)	MIC (Bacillus subtilis)	MIC (Escherichia coli)	MIC (Proteus vulgaris)
COc1ccc2c(ccc3c(-c4cc5c(cc4OC)-c4c(cc(O)cc4OC)CC5)c(O)cc(OC)c32)c1	> 128 µg/mL	> 128 µg/mL	> 128 µg/mL	> 128 µg/mL	> 128 µg/mL	> 128 µg/mL	> 128 µg/mL	> 128 µg/mL
COc1cc(O)c2c(c1)CCc1cc(O)c(-c3c(O)cc(OC)c4c3ccc3cc(OC)ccc34)cc1-2	8 µg/mL (≈ 16.2 µM)	8 µg/mL (≈ 16.2 µM)	8 µg/mL (≈ 16.2 µM)	8 µg/mL (≈ 16.2 µM)	64 µg/mL (≈ 129 µM)	16 µg/mL (≈ 32.4 µM)	> 128 µg/mL	> 128 µg/mL
COc1ccc2c(ccc3c(-c4c(O)cc(OC)c5c4CCc4cc(O)ccc4-5)c(O)cc(OC)c32)c1	4 µg/mL (≈ 8.09 µM)	2 µg/mL (≈ 4.04 µM)	4 µg/mL (≈ 8.09 µM)	4 µg/mL (≈ 8.09 µM)	4 µg/mL (≈ 8.09 µM)	4 µg/mL (≈ 8.09 µM)	> 128 µg/mL	> 128 µg/mL
COc1c(O)ccc2c1ccc1c(-c3c(O)cc(OC)c4c3ccc3c(OC)c(O)ccc34)c(O)cc(OC)c12	16 µg/mL (≈ 29.7 µM)	8 µg/mL (≈ 14.9 µM)	16 µg/mL (≈ 29.7 µM)	8 µg/mL (≈ 14.9 µM)	64 µg/mL (≈ 119 µM)	8 µg/mL (≈ 14.9 µM)	> 128 µg/mL	> 128 µg/mL
CC1(C)S[C@@H]2[C@H](NC(=O)[C@H](N)c3ccccc3)C(=O)N2[C@H]1C(=O)O [AMPICILLIN]	0.125 µg/mL (≈ 0.358 µM)	8 µg/mL (≈ 22.9 µM)	> 8 µg/mL	8 µg/mL (≈ 22.9 µM)	4 µg/mL (≈ 11.4 µM)	> 8 µg/mL	> 8 µg/mL	> 8 µg/mL
COc1cc(O)c(-c2c(O)cc(OC)c3c2ccc2cc(O)ccc23)c2ccc3cc(O)ccc3c12 [CIRRHOPETALANTHIN]	32 µg/mL (≈ 66.9 µM)	16 µg/mL (≈ 33.4 µM)	16 µg/mL (≈ 33.4 µM)	16 µg/mL (≈ 33.4 µM)	16 µg/mL (≈ 33.4 µM)	8 µg/mL (≈ 16.7 µM)	> 128 µg/mL	> 128 µg/mL
